Molecular target: T1, Human complement C1s enzyme (Homo sapiens, UniProt P09871)
T1 construct: purified from human serum, Complement Technology, Inc; purchased Complement Technology, Inc; host or cells: human serum
T1 sequence (P09871 438-688 limits assumed): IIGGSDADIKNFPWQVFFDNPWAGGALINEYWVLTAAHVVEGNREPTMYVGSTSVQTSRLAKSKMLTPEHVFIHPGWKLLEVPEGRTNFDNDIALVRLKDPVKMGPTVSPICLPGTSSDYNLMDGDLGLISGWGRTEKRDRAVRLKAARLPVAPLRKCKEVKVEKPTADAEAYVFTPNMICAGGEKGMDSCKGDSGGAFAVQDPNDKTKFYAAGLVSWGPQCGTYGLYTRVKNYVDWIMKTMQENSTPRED
T1 sequence (P09871 16-437 partner limits assumed): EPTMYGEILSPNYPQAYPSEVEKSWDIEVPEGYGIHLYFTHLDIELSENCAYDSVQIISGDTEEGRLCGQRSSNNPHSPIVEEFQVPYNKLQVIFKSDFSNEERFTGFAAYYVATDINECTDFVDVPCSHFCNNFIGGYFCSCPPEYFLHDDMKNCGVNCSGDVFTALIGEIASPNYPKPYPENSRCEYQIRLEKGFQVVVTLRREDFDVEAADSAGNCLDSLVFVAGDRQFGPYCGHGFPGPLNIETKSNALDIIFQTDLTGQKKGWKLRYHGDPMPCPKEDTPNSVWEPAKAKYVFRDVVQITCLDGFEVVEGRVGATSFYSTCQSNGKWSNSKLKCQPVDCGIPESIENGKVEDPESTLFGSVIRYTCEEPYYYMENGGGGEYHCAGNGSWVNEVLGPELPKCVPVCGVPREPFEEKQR
Assay: Human C1s Enzyme Assay
Assay type: biochemical
Conditions: human C1s 1.16 nM, 5 min preincubation, substrate Z-L-Lys-SBzl 100 μM, A405; read-out: C1s Protease Activity
Protocol: The assay of Example 3 was used to determine the IC50's of the compounds. Other standard complement assays are also available.
Example 3. Human C1s Enzyme Assay
Human complement C1s enzyme (purified from human serum, Complement Technology, Inc.) at 1.16 nM final concentration was incubated with test compound at various concentrations for 5 min at room temperature in 50 mM Tris, 1 M NaCl, pH 7.5. A synthetic substrate Z-L-Lys-SBzl and DTNB (Ellman's reagent) were added to final concentrations of 100 μM each. Absorbance at 405 nm (A405) was recorded at 30 second intervals for 30 min using a microplate spectrophotometer. IC50 values were calculated by nonlinear regression of complement C1s reaction rates as a function of test compound concentration.

IC50 [nM]	SMILES
< 100	N=C(N)c1csc(CNC(=O)[C@@H]2C[C@]3(CO)C[C@@H]3N2C(=O)CNC(=O)c2ccc(Oc3ccccc3)cc2)c1 [Compound 9, (1S,3S,5R)-N-((4-carbamimidoylthiophen-2-yl)methyl)-5-(hydroxymethyl)-2-((4-phenoxybenzoyl)glycyl)-2-azabicyclo[3.1.0]hexane-3-carboxamide]
< 100	C[C@@H](NC(=O)[C@@H]1C[C@]2(C)C[C@@H]2N1C(=O)CNC(=O)c1ccc(Oc2ccccc2)cc1)c1cc(-c2ncc[nH]2)cs1 [Compound 240, (1S,3S,5S)-N-((R)-1-(4-(1H-imidazol-2-yl)thiophen-2-yl)ethyl)-5-methyl-2-((4-phenoxybenzoyl)glycyl)-2-azabicyclo[3.1.0]hexane-3-carboxamide]
> 1000	C[C@@]12C[C@@H]1N(C(=O)CNC(=O)c1ccc(Oc3ccccc3)cc1)[C@H](C(=O)NCc1cc(/C(N)=N/NS(=O)(=O)c3ccccc3)cs1)C2 [Compound 139, (1S,3S,5S)-N-((4-(imino(2-(phenylsulfonyl)hydrazineyl)methyl)thiophen-2-yl)methyl)-5-methyl-2-((4-phenoxybenzoyl)glycyl)-2-azabicyclo[3.1.0]hexane-3-carboxamide]
< 100	C[C@@H](NC(=O)[C@@H]1C[C@@H](c2ccccc2)CN1C(=O)CNC(=O)CCCOc1ccccc1)c1cc(C(=N)N)cs1 [Compound 158, (2S,4S)-N-((R)-1-(4-carbamimidoylthiophen-2-yl)ethyl)-1-((4-phenoxybutanoyl)glycyl)-4-phenylpyrrolidine-2-carboxamide]
100 to 1000	N=C(N)c1csc(CNC(=O)[C@@H]2C[C@@H](C(F)F)CN2C(=O)CNC(=O)CCCOc2ccccc2)c1 [Compound 147, (2S,4R)-N-((4-carbamimidoylthiophen-2-yl)methyl)-4-(difluoromethyl)-1-((4-phenoxybutanoyl)glycyl)pyrrolidine-2-carboxamide]
< 100	C[C@@]12C[C@@H]1N(C(=O)CNC(=O)CCCOc1ccccc1)[C@H](C(=O)NCc1cc(C(=N)N)c(F)s1)C2 [Compound 245, (1S,3S,5S)-N-((4-carbamimidoyl-5-fluorothiophen-2-yl)methyl)-5-methyl-2-((4-phenoxybutanoyl)glycyl)-2-azabicyclo[3.1.0]hexane-3-carboxamide]
< 100	Cc1ccc(OCCCC(=O)NCC(=O)N2CC3(C[C@H]2C(=O)NCc2cc(C(=N)N)cs2)OCCO3)cc1 [Compound 64, (S)-N-((4-carbamimidoylthiophen-2-yl)methyl)-7-((4-(p-tolyloxy)butanoyl)glycyl)-1,4-dioxa-7-azaspiro[4.4]nonane-8-carboxamide]
100 to 1000	C[C@@]12C[C@@H]1N(C(=O)CNC(=O)CCCOc1ccc(S(C)(=N)=O)cc1)[C@H](C(=O)NCc1cc(C(=N)N)cs1)C2 (stereo partly drawn) [Compound 76, (1S,3S,5S)-N-((4-carbamimidoylthiophen-2-yl)methyl)-5-methyl-2-((4-(4-(S-methyl-sulfonimidoyl)phenoxy)butanoyl)glycyl)-2-azabicyclo[3.1.0]hexane-3-carboxamide]
100 to 1000	COCCOCCCC(=O)NCC(=O)N1[C@H]2C[C@@]2(C)C[C@H]1C(=O)NCc1cc(C(=N)N)cs1 [Compound 136, (1S,3S,5S)-N-((4-carbamimidoylthiophen-2-yl)methyl)-2-((4-(2-methoxyethoxy)butanoyl)glycyl)-5-methyl-2-azabicyclo[3.1.0]hexane-3-carboxamide]
< 100	N=C(N)c1csc(CNC(=O)[C@@H]2C[C@H](OC(F)F)CN2C(=O)CNC(=O)c2ccc(Oc3ccccc3)cc2)c1 [Compound 36, (2S,4S)-N-((4-carbamimidoylthiophen-2-yl)methyl)-4-(difluoromethoxy)-1-((4-phenoxybenzoyl)glycyl)pyrrolidine-2-carboxamide]
< 100	N=C(N)c1csc(CNC(=O)[C@@H]2CC(c3nccs3)CN2C(=O)CNC(=O)c2ccc(Oc3ccccc3)cc2)c1 (stereo in doubt) [Compound 209, (2S,4R)-N-((4-carbamimidoylthiophen-2-yl)methyl)-1-((4-phenoxybenzoyl)glycyl)-4-(thiazol-2-yl)pyrrolidine-2-carboxamide]
< 100	CC(=O)NCc1cc(C(=O)NCC(=O)N2[C@H]3C[C@@]3(C)C[C@H]2C(=O)NCc2cc(C(=N)N)cs2)ccc1Oc1ccccc1 [Compound 10]
< 100	C[C@@]12C[C@@H]1N(C(=O)CNC(=O)c1ccc(Oc3ccccc3)cc1)[C@H](C(=O)NCc1nc(C(=N)N)cs1)C2 [Compound 2, (1S,3S,5S)-N-((4-carbamimidoylthiazol-2-yl)methyl)-5-methyl-2-((4-phenoxy-benzoyl)glycyl)-2-azabicyclo[3.1.0]hexane-3-carboxamide]
< 100	N=C(N)c1csc(CNC(=O)[C@@H]2CC(=C(F)F)CN2C(=O)CNC(=O)CCCOc2ccccc2)c1 [Compound 26, (S)-N-((4-carbamimidoylthiophen-2-yl)methyl)-4-(difluoromethylene)-1-((4-phenoxy-butanoyl)glycyl)pyrrolidine-2-carboxamide]
100 to 1000	N=C(N)c1csc(CNC(=O)[C@@H]2C[C@@H](C3CCCCC3)CN2C(=O)CNC(=O)c2ccc(Oc3ccccc3)cc2)c1 [Compound 61, (2S,4S)-N-((4-carbamimidoylthiophen-2-yl)methyl)-4-cyclohexyl-1-((4-phenoxy-benzoyl)glycyl)pyrrolidine-2-carboxamide]
< 100	C[C@@H](NC(=O)[C@@H]1C[C@]2(COCCNC(=O)COCCOCCNC(=O)COCCOCCNC(=O)CC[C@H](NC(=O)CCCCCCCCCCCCCCCCC(=O)O)C(=O)O)C[C@@H]2N1C(=O)CNC(=O)CCCOc1ccccc1)c1cc(C(=N)N)cs1 [Compound 152, (S)-1-((1S,3S,5R)-3-(((R)-1-(4-carbamimidoylthiophen-2-yl)ethyl)carbamoyl)-2-((4-phenoxybutanoyl)glycyl)-2-azabicyclo[3.1.0]hexan-5-yl)-27-carboxy-6,15,24,29-tetraoxo-2,8,11,17,20-pentaoxa-5,14,23,28-tetraazahexatetracontan-46-oic acid]
> 1000	C[C@H](NC(=O)[C@@H]1C[C@]2(C)C[C@@H]2N1C(=O)CNC(=O)c1ccc(Oc2ccccc2)cc1)c1cc(-c2ncc[nH]2)cs1 [Compound 254, (1S,3S,5S)-N-((S)-1-(4-(1H-imidazol-2-yl)thiophen-2-yl)ethyl)-5-methyl-2-((4-phenoxybenzoyl)glycyl)-2-azabicyclo[3.1.0]hexane-3-carboxamide]
< 100	C[C@@H](NC(=O)[C@@H]1C[C@@H](c2ccccc2)CN1C(=O)CNC(=O)c1ccc(Oc2ccccc2)cc1)c1cc(C(=N)N)cs1 [Compound 246, (2S,4S)-N-((R)-1-(4-carbamimidoylthiophen-2-yl)ethyl)-1-((4-phenoxybenzoyl)glycyl)-4-phenylpyrrolidine-2-carboxamide]
< 100	C[C@@H](Oc1ccc(C(=O)NCC(=O)N2[C@H]3C[C@@]3(C)C[C@H]2C(=O)NCc2cc(C(=N)N)cs2)cc1)c1ccccc1 [Compound 223, (1S,3S,5S)-N-((4-carbamimidoylthiophen-2-yl)methyl)-5-methyl-2-((4-((R)-1-phenylethoxy)benzoyl)glycyl)-2-azabicyclo[3.1.0]hexane-3-carboxamide]
< 100	C[C@@H](NC(=O)[C@@H]1C[C@](F)(CF)CN1C(=O)CNC(=O)c1ccc(C(=O)c2ccccc2)cc1)c1cc(C(=N)N)cs1 [Compound 202, (2S,4R)-1-((4-benzoylbenzoyl)glycyl)-N-((R)-1-(4-carbamimidoylthiophen-2-yl)ethyl)-4-fluoro-4-(fluoromethyl)pyrrolidine-2-carboxamide]
< 100	C[C@@H](NC(=O)[C@@H]1CC2(CN1C(=O)CNC(=O)CCCOc1ccccc1)OCCO2)c1ccc(C(=N)N)s1 [Compound 133, (S)-N-((R)-1-(5-carbamimidoylthiophen-2-yl)ethyl)-7-((4-phenoxybutanoyl)glycyl)-1,4-dioxa-7-azaspiro[4.4]nonane-8-carboxamide]

SMILES	IC50 [nM]
CC(=O)ONC(=N)c1csc(CNC(=O)[C@@H]2C[C@]3(C)C[C@@H]3N2C(=O)CNC(=O)c2ccc(Oc3ccccc3)cc2)c1 [Compound 39, (1S,3S,5S)-N-((4-(N-acetoxycarbamimidoyl)thiophen-2-yl)methyl)-5-methyl-2-((4-phenoxybenzoyl)glycyl)-2-azabicyclo[3.1.0]hexane-3-carboxamide]	100 to 1000
